Marks after values point to notes of the source that are not given here.
Legend:
[1] = system: wild-type (AB) zebrafish (Danio rerio); type: in vivo; details: compound at 10 µM relative to controls; mean ± s.e.m., N = 12
[2] = system: wild-type (AB) zebrafish (Danio rerio); assay: animal or person; type: in vivo; details: for Distance moved / Variance turn angle: compound at 10 µM relative to controls, mean ± s.e.m., N = 12; for MEC: locomotor behaviors
Protocol: (§1) Larval zebrafish were produced in the University of Toledo zebrafish core facility and housed in an incubator maintained at 28 °C on a 14:10 h cycle. Fish were acclimated to the testing room conditions the evening prior to testing. All testing took place during the 14 h light cycle after the lights had been on for at least 2 h.
The movement of larval zebrafish was monitored with the Noldus behavior recording system (Noldus Information Technology, Leesburg VA) and quantified using EthoVision® XT 15 software (Noldus Information Technology, Leesburg VA). Five-dpf zebrafish larvae were exposed to a range of nonlethal concentrations of compounds in a 24-well plate with appropriate controls. The plate was immediately placed in the incubator for a 30-min exposure period. After 30 min, the plate was transferred to the Noldus system and swimming behavior was recorded in 100% light for 30 min to measure spontaneous swimming behavior. The light was switched off for 10 min (dark period) and then switched on for 10 min (light period), which was then repeated for two additional cycles. In total, the larvae were exposed to three cycles of alternating 10 min dark and light periods (100% darkness-to-100% light). Each drug challenge was conducted on three separate plates with n = 6 larvae/dose/plate.
Absolute turn angle (TA) and angular velocity provided measures of the extent of turning behavior, while the intra-individual variance of turn angle quantified how consistently (low variance) or inconsistently (high variance) fish turned. A lowered intra-individual variance of turning reflected repeatedly performing the same turning behavior, a stereotypy.
All data for exposure and the behavioral end points were analyzed by one-way ANOVA (factor: drug concentration) followed by a Dunnett’s multiple comparisons test for post hoc significance between drug concentration and control group. Statistically significant differences are noted as follows; *p < 0.05; **p < 0.01; ***p < 0.001.

[3] = system: wild-type (AB) zebrafish (Danio rerio); assay: Maximum tolerated concentration (MTC) determination in larval zebrafish; type: in vivo; details: after 24 h exposure; 5 dpf larvae
Protocol: as §1
Determination of maximum tolerated concentration (adapted from Berghmans)[52] was completed by placing 5 days post fertilization (dpf) wild-type zebrafish larvae in a 24 well plate at 6 fish per well, and one compound concentration per well. […] Death was determined by the absence of heartbeat. Additional endpoints were used to assess toxicity at non-lethal concentrations such as startle capacity (poke stimulus), abnormalities in swimming behavior (loss of dorsoventral balance), and gross morphological deformities (bent body). […] The MTC determination was used to select three doses of each compound (low, medium, high dose) to be used in behavioral assays.

[4] = biological target: T1, human M1 muscarinic receptors (Homo sapiens, UniProt P11229); assay: [3H]-arachidonic acid release in CHO cells expressing M1 receptors, with and without ACh (single modulator concentration, four-parameter curves); type: cell-based; parameters: expressed in transfected cells; host or cells: CHO cells stably transfected with hM1, obtained from Mark Brann's laboratory (NIH); details: for 0.1 µM ACh: response with modulator present divided by response to ACh alone / 100 µM ACh: response with modulator present divided by response to ACh alone / No ACh: agonist effect of the allosteric ligand by itself, fraction of the maximal response that could be elicited by ACh: modulator 10 µM, CHO-hM1, mean ± s.e.m.; for No ACh: agonist effect of the allosteric ligand by itself, fraction of the maximal response that could be elicited by ACh: at least 4 determinations
T1 sequence (P11229 1-460): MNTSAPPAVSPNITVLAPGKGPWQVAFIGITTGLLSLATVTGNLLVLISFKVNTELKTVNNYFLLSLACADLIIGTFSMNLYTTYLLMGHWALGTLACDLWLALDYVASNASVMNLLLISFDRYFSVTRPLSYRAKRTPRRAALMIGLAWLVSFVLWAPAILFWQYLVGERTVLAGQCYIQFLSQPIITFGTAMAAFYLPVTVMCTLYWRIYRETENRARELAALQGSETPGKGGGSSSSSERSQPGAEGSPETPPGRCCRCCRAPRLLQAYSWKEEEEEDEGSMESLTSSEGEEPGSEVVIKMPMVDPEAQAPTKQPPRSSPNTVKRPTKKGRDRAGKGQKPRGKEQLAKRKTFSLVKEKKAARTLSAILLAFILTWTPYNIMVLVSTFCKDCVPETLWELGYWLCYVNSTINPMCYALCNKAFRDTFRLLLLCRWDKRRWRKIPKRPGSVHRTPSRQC
Protocol: CHO cells expressing human M1 muscarinic receptors were cultured at 37 °C in a 5% CO2 atmosphere in F12 medium supplemented with 5% fetal bovine serum, 100 units/ml penicillin, and 100 µg/ml streptomycin. These cells were obtained from Mark Brann’s laboratory when they were at NIH and have been in use by us and others for many years.
Measurement of [^3H]AA release was performed as described in Stahl and Ellis[24]. Stably transfected CHO-hM1 cells were seeded on 24-well plates (Greiner Bio-One GmbH, Frickenhausen, Germany) at a density of 5.0 × 10^4 cells/well in 0.5 ml of F-12 medium. Cells were incubated until they attached (approximately 3 h), followed by the addition of [^3H]AA to a final concentration of 0.05 μCi of [^3H]AA per well. The cells were then grown for 16 to 20 h before the assay was performed. [^3H]AA release was measured in Eagle’s basal medium with 20 mM HEPES and 2 mg/ml fatty acid-free bovine serum albumin (EM-BSA). Cells were rinsed twice with EM-BSA, followed by the addition of EM-BSA media containing experimental agents and incubated for 1 h at 37 °C. The assay was terminated by aspiration of the media, and the amount of [^3H]AA released was determined by liquid scintillation counting (Beckman-Coulter LS6500).
Where indicated (Fig. 2), cells were pretreated with POB to reduce the number of available receptors per cell. Stock POB was made up at 10 mM in ethanol and stored at −20C. Each well was pretreated with 0.5 ml of the appropriate concentration in PBS with 1 mM CaCl2 and 1 mM MgCl2 (PBS+ +) for 30 min at 37 °C, followed by 5 washes with PBS+ + . After pretreatment, the normal protocol follows as above.
Tabulated [^3H]AA release data are represented as a fraction of maximal release elicited by ACh or as the fraction of release elicited by the relevant concentration of ACh alone, as indicated. Dose-response curves were normalized to the maximal response of ACh without allosteric ligand. Where indicated, response curves were analyzed using the empirical four-parameter equation: Y=Top+Bottom-Top/1+X/C50^n where X is the concentration of the ligand used, Y is the amount of response, C50 is the concentration of the ligand that produces 50% of the maximal effect, Top and Bottom are the top and bottom plateaus of the curve, and n is related to the Hill slope for the curve. Where indicated, families of response curves were analyzed according to an allosteric operational model[50],[51]: Y=EM[τAA(KB+αβB)+τBBKA]/[τAA(KB+αβB)+τBBKA+AKB+KAKB+KAB+αAB] where EM is the maximal response; A is the concentration of ACh; B is the concentration of the allosteric ligand; τA and τB represent the operational efficacies of A and B, respectively; KA and KB are the equilibrium dissociation constants of A and B; and α and β represent the cooperativities between A and B in terms of binding and activation, respectively. Curve-fitting was carried out with GraphPad Prism, version 5.0 or 6.0 (San Diego CA).

Compound | Angular velocity [1] [%] | Therap. index [2] | Distance moved [2] | Variance turn angle [2] | MEC [2] [µM] | MTC (maximum tolerated concentration) [3] [µM] | 0.1 µM ACh: response with modulator present divided by response to ACh alone [4] | 100 µM ACh: response with modulator present divided by response to ACh alone [4] | No ACh: agonist effect of the allosteric ligand by itself, fraction of the maximal response that could be elicited by ACh [4] | Effect on M1 receptor activity and ACh response, in words ([4]; modulators at 10 µM (amiodarone 30 µM))
O=C1C(=O)N(Cc2ccc(O)cc2)c2ccccc21 [Compound 10, 1-(4-hydroxybenzyl)indoline-2,3-dione] | 131.2 ± 13.4 | 3.3 | 72.4 ± 8.6* % | 135.3 ± 13.5* % | 3 | 10 | 1.42 ± 0.24 | 0.92 ± 0.06 | 0.01 ± 0.01 | –
COc1c(F)cc(CN2C(=O)C(=O)c3ccccc32)cc1F [Compound 8g, 1-(3,5-difluoro-4-methoxybenzyl)indoline-2,3-dione] | 144.5 ± 18.6 | 30 | 65.7 ± 11.7*** % | 126.5 ± 10.4* % | 1 | 30 | 1.41 ± 0.13 | 0.95 ± 0.05 | 0.03 ± 0.01 | –
O=C1C(=O)N(Cc2cc(F)c(F)c(F)c2)c2ccccc21 [Compound 8i, 1-(3,4,5-trifluorobenzyl)indoline-2,3-dione] | 412.1 ± 28.7 | 10 | 11.6 ± 1.2*** % | 146.1 ± 16.1** % | 1 | 10 | 1.47 ± 0.12 | 1.04 ± 0.02 | 0.06 ± 0.01 | –
COc1cc(CN2C(=O)C(=O)c3ccccc32)cc(OC)c1OC [Compound 8k, 1-(3,4,5-trimethoxybenzyl)indoline-2,3-dione] | 154.2 ± 18.0 | 30 | 66.2 ± 8.4** % | 126.3 ± 10.8* % | 1 | 30 | 1.55 ± 0.07 | 0.94 ± 0.06 | 0.03 ± 0.00 | –
COc1ccc(CN2C(=O)C(=O)c3ccccc32)cc1F [Compound 8h, 1-(3-fluoro-4-methoxybenzyl)indoline-2,3-dione] | 201.4 ± 27.5 | 10 | 52.7 ± 6.6*** % | 148.0 ± 12.4*** % | 3 | 30 | 1.32 ± 0.10 | 0.97 ± 0.06 | 0.05 ± 0.03 | –
CCCCc1oc2ccc(NS(C)(=O)=O)cc2c1C(=O)c1ccc(OCCCN(CCCC)CCCC)cc1 [Dronedarone, reference compound] | 172.8 ± 25.7 | 1 | 28.3 ± 5.3*** % | 141.6 ± 12.5*** % | 10 | 10 | 0.25 ± 0.05 | 0.75 ± 0.07 | 0.08 ± 0.01 | –
COc1ccc(CN2C(=O)C(=O)c3ccccc32)cc1Cl [Compound 8f, 1-(3-chloro-4-methoxybenzyl)indoline-2,3-dione] | 157.1 ± 24.5 | 3.3 | 37.4 ± 6.4*** % | 127.9 ± 16.2% | 3 | 10 | 1.67 ± 0.12 | 1.08 ± 0.06 | 0.09 ± 0.04 | –
CCCCc1oc2ccccc2c1C(=O)c1cc(I)c(OC)c(I)c1 [Compound 6b, (2-butylbenzofuran-3-yl)(3,5-diiodo-4-methoxyphenyl)methanone] | 132.3 ± 16.9 | – | 75.3 ± 8.5* % | 133.7 ± 14.0* % | > 30 | 30 | 1.78 ± 0.12 | 1.36 ± 0.07 | 0.08 ± 0.02 | increased ACh activity

— article PMC11213934, “Allosteric modulators of M1 muscarinic receptors enhance acetylcholine efficacy and decrease locomotor activity and turning behaviors in zebrafish” (Scientific Reports, 2024)
